Results published in paper PMC4666608, “Metabolic Profiling of Chicken Embryos Exposed to Perfluorooctanoic Acid (PFOA) and Agonists to Peroxisome Proliferator-Activated Receptors” (PLoS ONE, 2015).
Marks after values point to notes of the source that are not given here.

System: chicken embryos
Experiment: Metabolic profiling of blood plasma (GC-MS, LC-MS, OPLS-DA)
Format: in vivo, Gallus gallus domesticus
Details: for Mean concentration relative to control, feature Win006_C03 / Mean concentration relative to control, feature Win011_C02 (Isoleucine) / Mean concentration relative to control, feature Win027_C13 / Mean concentration relative to control, feature Win031_C03 (Citric acid) / Mean concentration relative to control, feature Win034_C08 (Tyrosine) / Mean concentration relative to control, feature Win034_C09 (Tyrosine) / Mean concentration relative to control, feature Win039_C07 / Mean concentration relative to control, feature Win043_C02 (Cystathionine) / Mean concentration relative to control, feature Win061_C01 / Mean concentration relative to control, feature Win066_C03 / Mean concentration relative to control, feature Win088_C02: GC
Method: Controls were injected with 20 μL vehicle only (DMSO).
Plasma was collected and stored at -70°C.
Metabolites in allantoic fluid and blood plasma were analyzed using gas chromatography-mass spectrometry (GC-MS) and liquid chromatography-mass spectrometry (LC-MS) as described in S1 Methods. Prior to GC-MS and LC-MS analysis, allantoic fluid (100 μL) and blood plasma (50 μL) were extracted. To each sample, 900 μL (allantoic fluid) or 450 μL (blood plasma) of extraction buffer (90/10 v/v methanol:water) including all internal standards were added. Standards for GC-MS were proline, succinic acid, glutamic acid, salicylic acid, alpha-ketoglutarate, putrescine, myristic acid, hexadecanoic acid, cholesterol, and sucrose. Standards for LC-MS were Val-Tyr-Val, Leu-enkephalin, sulfadimethoxine and reserpine. Samples were homogenized by shaking in a bead mill at a frequency of 30 Hz for 3 minutes and proteins were precipitated at +4°C on ice. The samples were centrifuged at +4°C, 14000 rpm, for 10 min. Then, 200 μL supernatant was transferred to a GC microvial and 200 μL was transferred to an LC microvial, and solvents were evaporated. Samples from the four replicate experiments were analyzed using in chronological order and within each replicate experiment the run order of the individual samples was randomized.
Multivariate statistical analyses of metabolite profiles were performed using the software package SIMCA-P version 13.0 (Umetrics, Umeå, Sweden). Data was centered and scaled to variance 1 (UV scaling) prior to modelling. To reduce unintended systematic variation caused by sample processing and instrument drift, GC-MS and LC-MS metabolite amounts (expressed as the area under the chromatographic peak) were normalized by Orthogonal Partial Least Squares analysis (O2PLS) prior to multivariate data analysis. O2PLS finds common (predictive) and unique (orthogonal) variation in two data matrices. If applied to find the common variation between the data matrix containing the measured metabolite concentrations and a matrix containing only the internal standards, the only common (predictive) variation expected is due to the unintended systematic variation. By deleting the contribution of the predictive latent variables, that variation can be removed from the data. Models obtained after this normalization contain in general less latent variables, and this simplification helps when deciding on the number of latent variables to be used. Following normalization, GC-MS and LC-MS data were analyzed together. Initially, a global Principal Component Analysis (PCA) was performed to get an overview of groups and trends and to identify outliers. Projections to latent structures by means of Orthogonal Partial Least Squares Discriminant Analysis (OPLS-DA) was used to model the relationship between the X-matrix (metabolite concentrations) and the Y matrix (class, i.e. exposure group or sex), and to find x-variables that were related to class belonging. OPLS-DA is a supervised prediction and regression method that rotates the projection plane to find the maximum covariance between the data and the class assignment. All groups were first analyzed together in a 5-class OPLS-DA and then each exposure group was analyzed against the control group in a 2-class OPLS-DA. Sex differences were analyzed both using the whole data set and in each group separately using 2-class OPLS-DA, with females and males as the two classes. Only variables with 80% or more nonzero values were included in the statistical models. […] The validity of each model was also checked using CV-ANOVA (ANOVA of the cross-validated residuals). A significance level of p < 0.05 was used. For each model, R ^2 X, R ^2 Y and Q ^2 values were calculated, where R ^2 X is a measure of the fraction of x variation modeled in the extracted latent variables, R ^2 Y is a measure of the fraction of y variation modeled and Q ^2 is an estimate of the predictive ability of the model and is calculated by cross-validation. […]

O=C(O)C(F)(F)C(F)(F)C(F)(F)C(F)(F)C(F)(F)C(F)(F)C(F)(F)F [PFOA, perfluorooctanoic acid]
Mean concentration relative to control, feature Win006_C03 (PFOA 50): 1.1*
Mean concentration relative to control, feature Win011_C02 (Isoleucine) (PFOA 50): 1.1
Mean concentration relative to control, feature Win027_C13 (PFOA 50): 0.9
Mean concentration relative to control, feature Win031_C03 (Citric acid) (PFOA 50): 1
Mean concentration relative to control, feature Win034_C08 (Tyrosine) (PFOA 50): 1.1
Mean concentration relative to control, feature Win034_C09 (Tyrosine) (PFOA 50): 1.1
Mean concentration relative to control, feature Win039_C07 (PFOA 50): 1.3
Mean concentration relative to control, feature Win043_C02 (Cystathionine) (PFOA 50): 1.1
Mean concentration relative to control, feature Win061_C01 (PFOA 50): 0.9
Mean concentration relative to control, feature Win066_C03 (PFOA 50): 1
Mean concentration relative to control, feature Win088_C02 (PFOA 50): 1
Mean concentration relative to control, feature Win006_C03 (PFOA 250): 1.1*
Mean concentration relative to control, feature Win011_C02 (Isoleucine) (PFOA 250): 1.1*
Mean concentration relative to control, feature Win027_C13 (PFOA 250): 0.8*
Mean concentration relative to control, feature Win031_C03 (Citric acid) (PFOA 250): 1
Mean concentration relative to control, feature Win034_C08 (Tyrosine) (PFOA 250): 1
Mean concentration relative to control, feature Win034_C09 (Tyrosine) (PFOA 250): 1.0
Mean concentration relative to control, feature Win039_C07 (PFOA 250): 1.3
Mean concentration relative to control, feature Win043_C02 (Cystathionine) (PFOA 250): 1.1
Mean concentration relative to control, feature Win061_C01 (PFOA 250): 0.9
Mean concentration relative to control, feature Win066_C03 (PFOA 250): 1
Mean concentration relative to control, feature Win088_C02 (PFOA 250): 1
Mean concentration relative to control, feature 118.0284@2.480333 (C4H6O4) (LC, PFOA 50): 1
Mean concentration relative to control, feature 122.0486@0.675613 (LC, PFOA 50): 1.1
Mean concentration relative to control, feature 126.0428@1.2278157 (Thymine) (LC, PFOA 50): 1.1
Mean concentration relative to control, feature 146.0362@0.7772238 (LC, PFOA 50): 1.1
Mean concentration relative to control, feature 159.0686@1.1608156 (LC, PFOA 50): 1
Mean concentration relative to control, feature 164.0449@0.7694838 (LC, PFOA 50): 1.1
Mean concentration relative to control, feature 202.1024@5.0303197 (C8H14N2O4) (LC, PFOA 50): 1.1
Mean concentration relative to control, feature 203.1162@0.5130696 (LC, PFOA 50): 1.1
Mean concentration relative to control, feature 213.2458@7.4887733 (LC, PFOA 50): 1
Mean concentration relative to control, feature 215.047@1.6260729 (C5H14NO6P) (LC, PFOA 50): 1.0
Mean concentration relative to control, feature 226.0721@1.9460537 (LC, PFOA 50): 1
Mean concentration relative to control, feature 231.0174@1.6241412 (LC, PFOA 50): 1
Mean concentration relative to control, feature 233.1265@2.535991 (LC, PFOA 50): 1.1
Mean concentration relative to control, feature 250.1317@2.1334834 (LC, PFOA 50): 1.1
Mean concentration relative to control, feature 260.0508@0.69984084 (LC, PFOA 50): 0.6**
Mean concentration relative to control, feature 276.0173@1.6283482 (LC, PFOA 50): 1
Mean concentration relative to control, feature 278.0939@1.3354088 (LC, PFOA 50): 1
Mean concentration relative to control, feature 293.0903@1.5739433 (LC, PFOA 50): 1
Mean concentration relative to control, feature 307.2147@7.5065937 (C18H29NO3) (LC, PFOA 50): 1.3**
Mean concentration relative to control, feature 310.178@7.5343466 (LC, PFOA 50): 1
Mean concentration relative to control, feature 339.3861@9.528681 (LC, PFOA 50): 1.4*
Mean concentration relative to control, feature 342.2883@7.526812 (LC, PFOA 50): 0.9**
Mean concentration relative to control, feature 348.0675@1.5761927 (LC, PFOA 50): 1
Mean concentration relative to control, feature 355.9454@0.68034226 (LC, PFOA 50): 1
Mean concentration relative to control, feature 362.1467@0.8461036 (LC, PFOA 50): 1.1
Mean concentration relative to control, feature 366.1431@1.4228548 (LC, PFOA 50): 1
Mean concentration relative to control, feature 373.296@9.044806 (LC, PFOA 50): 1
Mean concentration relative to control, feature 375.3108@8.995564 (LC, PFOA 50): 1
Mean concentration relative to control, feature 389.2686@9.046645 (LC, PFOA 50): 1
Mean concentration relative to control, feature 407.0999@1.585909 (LC, PFOA 50): 1
Mean concentration relative to control, feature 412.135@2.4779084 (C17H24N4O6S) (LC, PFOA 50): 1
Mean concentration relative to control, feature 444.3607@10.33052 (LC, PFOA 50): 0.9
Mean concentration relative to control, feature 471.9819@0.685074 (LC, PFOA 50): 1
Mean concentration relative to control, feature 489.1508@8.562614 (LC, PFOA 50): 0.8*
Mean concentration relative to control, feature 509.1184@2.4798179 (LC, PFOA 50): 1
Mean concentration relative to control, feature 525.2855@8.361063 (LC, PFOA 50): 1.1
Mean concentration relative to control, feature 545.2492@8.463657 (LC, PFOA 50): 1.1
Mean concentration relative to control, feature 558.4095@9.459733 (LC, PFOA 50): 1.2
Mean concentration relative to control, feature 565.1902@0.7699907 (LC, PFOA 50): 1.1
Mean concentration relative to control, feature 577.2747@9.25652 (LC, PFOA 50): 1
Mean concentration relative to control, feature 581.1643@0.77029324 (LC, PFOA 50): 1.1
Mean concentration relative to control, feature 634.2403@1.9467853 (LC, PFOA 50): 1
Mean concentration relative to control, feature 644.1614@0.7647065 (LC, PFOA 50): 1.1
